Values quoted from earlier work as cited in patent US10557153B2, “Degradation of lignocellulosic material” (DSM IP ASSETS B.V., priority 2008, dated 2020).

Assays:
Conditions in all cases: S (Cellobiose) 2.5 g/L
[1] = tested on: Talaromyces beta-glucosidase
[2] = tested on: Trichoderma beta-glucosidase
[3] = tested on: A. niger beta-glucosidase
[4] = tested on: A. oryzae beta-glucosidase

In the case of `OC[C@H]1O[C@@H](O[C@H]2[C@H](O)[C@@H](O)C(O)O[C@@H]2CO)[C@H](O)[C@@H](O)[C@@H]1O` (stereo partly shown) [cellobiose], the “Vmax (cellobiose)” value [1] is given as 1080 gr/gr protein/hr, the “Vmax (cellobiose)” value [2] is given as 470 gr/gr protein/hr and the “Vmax (cellobiose)” value [3] is given as 400 gr/gr protein/hr. The “Vmax (cellobiose)” value [4] was 10131 gr/gr protein/hr.
